Experimental data taken from patent US20160354312A1, “FORMULATIONS OF JASMONATES AND NANOCARRIERS OR MICROCARRIERS” (Nanocare Technologies, Inc., priority 2008, published 2016).

Assay: GC/MS analysis of incorporation of methyl jasmonate in nanocarriers
Assay type: physicochemical
Experimental: The class of dendrimers used was PAMAM. […] The experimental data was obtained using a GC with a column temperature of 50° C., the injection temperature of 250° C., Flow control mode linear, total flow 50.0 mL/min., and column flow of 1.70 mL/min. The percentage relative to the incorporation of methyl jasmonate inside β-CD was 98-99% and for dendrimer PAMAM it was more than 95%. Comparing peak 1 with 2, peak 2 is methyl Jasmonate alone and peak 1 is the inclusion compounds formed. In both cases peak 1 is clearly different and proves the molecular association.

Compound: CC/C=C\CC1C(=O)CCC1CC(=O)OC (centres unmarked) [methyl jasmonate]
- percentage relative to the incorporation of methyl jasmonate (dendrimer PAMAM): more than 95%
- percentage relative to the incorporation of methyl jasmonate (inside β-CD): 98-99%
